Common to all, as to assay: NCI tumour cell line growth inhibition, 48 h
For assay [1], the system named is COLO 205 colon.
The test system of assay [2] is HS 578T breast.
Assay [3] has as its system OVCAR-8 ovarian.
Assay [4] relates to PC-3 prostate.
Assay [5] concerns SK-OV-3 ovarian.
Assay [6] relates to SN12C renal.
Assay [7] has as its system T-47D breast.
The subject of assay [8] is U251 CNS.
The subject of assay [9] is UACC-257 melanoma.
Assay [10] relates to DU-145 prostate.

Data on eight compounds can be found in PubChem BioAssay (NCI).

Structures are written as SMILES.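 A five-concentration, 48-hour dose response in 96-well plates underlies each endpoint, interpolated linearly between surrounding concentrations. GI50 marks 50% less growth. The concentration for full growth arrest is given as TGI.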

With `COc1cc(/C=C2\C(=O)N(c3ccccc3)c3ccccc32)cc(OC)c1OC`, the GI50 was 14.4 µM in assay [1]; 28.2 µM in assay [2]; 8.83 µM in assay [3]; 3.13 µM in [4]; 18.4 µM in assay [5]; 5.4 µM in [6]. In addition, the GI50 in [7] is 5.02 µM; in assay [8], 3.87 µM; in [9] it was 6.66 µM. In addition, the TGI is 71.3 µM in [1]; greater than 100 µM in [2]; 45.5 µM in [3]; 16.1 µM in assay [4]; 43.8 µM in assay [5]; 24.7 µM in assay [6]. The TGI in assay [7] is greater than 100 µM; in assay [8], 15.3 µM; in [9], 19.9 µM.

Consider `Cc1ccc(NC2=C(Cl)C(=O)N(Cc3ccccc3)C2=O)cc1Cl`, for which the GI50 in assay [1] is 7.03 µM; in [10] it was 14.4 µM; in [2], 10.6 µM; in [3], 2.32 µM; in assay [4], 1.99 µM; in assay [5] it was 19.4 µM. Also, the results for the GI50 in assay [6], in assay [7] and in assay [8] were 3.4 µM, 4.3 µM and 3.75 µM, respectively. In addition, the TGI is 22.1 µM in assay [1]; 27.8 µM in [10]; 33.9 µM in assay [2]; 9.93 µM in [3]; 8.84 µM in [4]; greater than 100 µM in assay [5]. Moreover, the TGI in [6] was determined as 15.8 µM; in assay [7], 25.3 µM; in assay [8], 15.9 µM.

Regarding `COc1ccc(CCN2CCC(Nc3nc4ccccc4n3Cc3ccc(F)cc3)CC2)cc1`, the GI50 in assay [1] is 1.52 µM; in assay [10], 1.94 µM; in assay [3] it was 2.02 µM; in assay [4], 1.8 µM; in assay [5], 1.9 µM; in [6] it was 1.51 µM. In addition, the GI50 is 1.97 µM in assay [7], 1.47 µM in [8] and 1.67 µM in [9]. The TGI in assay [1] stood at 2.98 µM; in assay [10], 3.65 µM; in assay [3], 4.52 µM; in assay [4] it was 5.66 µM; in assay [5], 3.44 µM; in assay [6] it was 2.96 µM. The TGI in assay [7] was found to be 4.38 µM; in [8], 2.89 µM; in assay [9] it was 3.48 µM.

As for `O=C(Nc1ccc(OCc2nnc(-c3ccccc3)o2)c(F)c1)Nc1ccc(Cl)c(C(F)(F)F)c1`, the GI50 was 2.11 µM in assay [1]; 1.8 µM in assay [10]; 2 µM in [2]; 2.57 µM in assay [3]; 1.3 µM in assay [4]; 3.17 µM in [5]. Also, the GI50 in assay [6] is 1.91 µM; in assay [7] it was 2.31 µM; in assay [8], 1.54 µM. Moreover, the TGI in [1] is 5.52 µM; in [10], 3.53 µM; in assay [2], 7.09 µM; in assay [3] it was 11.5 µM; in assay [4], 4.85 µM; in assay [5] it was 9.46 µM. Also, the TGI is 6.23 µM in [6], 7.15 µM in assay [7] and 4.68 µM in [8].

For `NC1=CC(=O)c2nc3ccccc3c3ccnc1c23`, the GI50 in [10] is 0.495 µM; in assay [2] it was 0.766 µM; in [3] it was 2.39 µM; in assay [4], 6.53 µM; in assay [5], 12 µM; in assay [6], 5.59 µM. In addition, the figures for the GI50 in [7], in assay [8] and in assay [9] were 7.85 µM, 2.17 µM and 2.37 µM, respectively. Also, the TGI was greater than 44.6 µM in assay [10]; 5.73 µM in assay [2]; 18.5 µM in [3]; greater than 48 µM in assay [4]; greater than 52.9 µM in assay [5]; greater than 74.1 µM in assay [6]. In addition, the TGI in [7] was greater than 67.4 µM; in [8], greater than 45.2 µM; in [9] it was 20 µM.

For `O=C1CC[C@H](c2ccc(O)c3c2C(=O)[C@@H]2O[C@@H]2C3=O)c2cccc(O)c21`, the GI50 in assay [1] was 1.24 µM; in assay [2], 3.78 µM; in [3], 3.36 µM; in assay [4], 2.52 µM; in assay [5], 16.6 µM; in assay [7], 1.27 µM. The GI50 in assay [8] was 11.6 µM; in assay [9], 2.98 µM. The TGI in [1] was 2.88 µM; in assay [2] it was 97.2 µM; in assay [3], 11.2 µM; in [4], 7.22 µM; in [5] it was 30.4 µM; in assay [7], 3.81 µM. For the same compound, the TGI stood at 25.2 µM in assay [8] and 9 µM in assay [9].

Turning to `Cc1sc(NC2=NC(=O)/C(=C\c3ccccc3)S2)nc1-c1nc(NC2=NC(=O)/C(=C\c3ccccc3)S2)sc1C`, the GI50 was 26.4 µM in [1]; 0.382 µM in assay [10]; 3.13 µM in [2]; 16.5 µM in assay [3]; 16.7 µM in assay [4]; 11.4 µM in assay [6]. Moreover, the GI50 was 28.2 µM in assay [7], 9.27 µM in assay [8] and 13.7 µM in [9]. Also, the TGI was greater than 50 µM in assay [1]; greater than 20.6 µM in assay [10]; greater than 50 µM in [2]; greater than 39.6 µM in [3]; greater than 50 µM in [4]; 29.8 µM in assay [6]. In addition, the TGI in assay [7] was greater than 50 µM; in assay [8], 22.9 µM; in assay [9], greater than 38.7 µM.

Regarding `Nc1ccc(-c2nc3ccccc3o2)cc1S`, the GI50 in assay [1] was 27.5 µM; in assay [10], 19.9 µM; in assay [2], 16.4 µM; in assay [3] it was 20.3 µM; in [4], 6.96 µM; in assay [5], 23.2 µM. Besides, the GI50 in [6] was 13.2 µM; in assay [8], 10.8 µM; in [9] it was 23.1 µM. The TGI in assay [1] is greater than 100 µM; in [10] it was 55.3 µM; in [2] it was 63.8 µM; in assay [3] it was 58 µM; in assay [4] it was 22.5 µM; in assay [5], 65.1 µM. In addition, the TGI was found to be 27.5 µM in assay [6], 22.7 µM in assay [8] and 59.8 µM in [9].
